From US20230416679A1, “METHODS AND COMPOSITIONS FOR IN-VITRO AUGMENTATION OF MILK PRODUCTION FROM MAMMARY EPITHELIAL CELLS” (Wilk Technologies International Ltd., priority 2021, published 2023) come the findings set out here.

Assay [1] has as its system primary culture of bovine mammary epithelial cells. Nature of the assay: Intracellular lipid droplets fluorescence staining (Nile red / DAPI). The settings on record: gallic acid added to MEC primary culture (FIG. 6). It counts as cell-based. An excerpt:
For all the experiments, primary culture of bovine mammary epithelial cells were used. The cells were isolated from 3 lactating Holstein cows according to an established protocol (Cohen et al., 2015 supra). Study protocols were in compliance with the regulations of the Israeli Ministry of Health, under the supervision of the Department for Control of Animal Products, State of Israel Ministry of Agriculture Rural Development Veterinary Services and Animal Health. Certificate Nu: #80. After isolation, 60,000 cells were plated in a 35-mm plastic dish on glass cover slips for all florescence staining experiments. […] After 24 h of incubation, medium was collected for triglyceride and phospholipid quantification, and cells were harvested for cell counting, lipid, lactose or protein extraction. […] Cover slips were then rinsed four times with PBS and mounted with fluorescence mounting medium (Dako, North America Inc., Carpinteria, CA). Slides were visualized with an Olympus BX40 fluorescence microscope equipped with an Olympus DP73 digital camera using CellSens Entry software (version 1.7, Olympus). Lipid droplet diameter was measured using ImageJ software (version 1.48, NIH, Bethesda, MD). […] The effect of oleic acid on accumulation of fat in primary culture of mammary epithelial cells was determined using Nile red staining (red). […]

Assay [2] shares this test system. Nature of the assay: Milk lactose secretion to the medium (HPLC, refractive index detector). It counts as cell-based. An excerpt: For all the experiments, primary culture of bovine mammary epithelial cells were used. The cells were isolated from 3 lactating Holstein cows according to an established protocol (Cohen et al., 2015 supra). Study protocols were in compliance with the regulations of the Israeli Ministry of Health, under the supervision of the Department for Control of Animal Products, State of Israel Ministry of Agriculture Rural Development Veterinary Services and Animal Health. Certificate Nu: #80. After isolation, 60,000 cells were plated in a 35-mm plastic dish on glass cover slips for all florescence staining experiments. For production analysis, 150,000 cells were plated in a 60-mm plastic dish for lipids, protein, and lactose extraction. […] After 24 h of incubation, medium was collected for triglyceride and phospholipid quantification, and cells were harvested for cell counting, lipid, lactose or protein extraction. […] After treatment, 0.5 ml medium was collected to be analyzed using HPLC equipped with a refractive index detector at 68° C. […] Identification and quantification were determined by establishing a calibration curve of external standard of a known lactose concentration dissolved in water. […]

Each structure is given as a SMILES string.

`O=C(O)c1cc(O)c(O)c(O)c1` [gallic acid]: the “size of the intracellular lipid droplets” value in assay [1] is listed as “increased”. In addition, the lactose secretion entry in assay [2] is “increases”.

With `O=c1c(O)c(-c2cc(O)c(O)c(O)c2)oc2cc(O)cc(O)c12` [myricetin, Myricetin], in assay [2], the lactose secretion entry was “can increase”.
